These results are taken from patent US11771661B2, “Method of treating post-traumatic stress disorder” (ICAHN SCHOOL OF MEDICINE AT MOUNT SINAI, priority 2013, dated 2023).

In one test the target is NMDA receptors. The settings on record: read-out: Ki, binding to NMDA receptors; cited from earlier work.
Test [1] deals with intractable central neuropathic pain. The settings on record: in vivo; cited from earlier work.
In test [2] the test system is patients with chronic PTSD. The test is described as follows: Example 2: randomized, double-blind, midazolam-controlled crossover trial of IV ketamine, symptom ratings. It counts as in vivo, human. The text has this: Patients with chronic PTSD were enrolled in a controlled study. […] Exclusion criteria included lifetime history of psychotic or bipolar disorder, current bulimia or anorexia nervosa, alcohol abuse or dependence in the previous three months, serious unstable medical illness or sleep apnea, active suicidal or homicidal ideation on presentation, or current use of any psychotropic medications. All patients underwent a physical examination and laboratory screening including routine hematologic, biochemical and urine toxicology testing, as well as an electrocardiogram to rule out unstable medical illness and active substance use. To receive the second IV infusion, a CAPS score of at least 50 was required prior to the second infusion. The Institutional Review Board at Mount Sinai approved the study, and informed consent was obtained from all study participants.
Study participants were free of concomitant psychotropic medications for two weeks prior to randomization and for the duration of the study. For each procedure day, patients were assigned to receive a single IV infusion of ketamine hydrochloride (0.5 mg/kg) or midazolam (0.045 mg/kg), administered over 40 minutes. Order of infusions (ketamine-midazolam or midazolam-ketamine) was randomly assigned and administrations were two weeks apart. […] Only the research pharmacy was aware of drug identity, and all study personnel, including investigators, anesthesiologists, raters, patients and data analysts were blinded to randomization order.
Following admission and an overnight fast, an indwelling catheter was placed in the antecubital vein of the non-dominant arm. Pulse, blood pressure, pulse-oximetry and ECG monitoring were instituted (see Murrough J et al. Antidepressant efficacy of ketamine in treatment-resistant major depression: a two-site, randomized controlled trial. The American Journal of Psychiatry. 2013 Oct. 1; 170(10):1134-42). Ratings were administered by a trained rater during the infusion and at 240 minutes after the start of the infusion. A different rater, blinded to the ratings during post-infusion on infusion, administered ratings at pre-infusion baseline, 24 hours (Day 1) post-infusion (before patients were discharged from the hospital), 48 hours (Day 2), 72 hours (Day 3), and 7 days (Day 7) post-infusion. Ratings were also administered at 10 and 13 days post-infusion, though data analyses focused on the first week post-infusion due to the expected duration of ketamine action. Patients were instructed to abstain from taking psychotropic medications and from using alcohol or substances of abuse for the duration of the trial. As described above, patients who scored ≥50 on the CAPS 2 weeks after the first infusion received an infusion of the second study drug.
The primary outcome was PTSD symptom severity at 24 hours post-infusion, assessed with the Impact of Event Scale—Revised (IES-R). Twenty-four hours post-infusion was selected as the primary endpoint, as acute sedating and other side effects were expected to have resolved, while potential symptom improvement was expected to persist at 24 hours. Secondary outcome measures included the Montgomery-Asberg Depression Rating Scale (MADRS), the Quick Inventory of Depressive Symptomatology, Self-Report (QIDS-SR), and Clinical Global Impression-Severity (CGI-S) and -Improvement (GCI-I) scales administered by a study clinician at 24 hours, 48 hours, 72 hours and 7 days post-infusion. The IES-R was also administered at 48 hours, 72 hours, and 7 days post-infusion. Additionally, the CAPS was administered 7 days post-infusion.
A mixed-model approach was employed to test effects of treatment, period, and carryover.

The mark [3] stands for this setting: by treatment group (drug given first).
The mark [4] stands for this setting: individual responder patients, after first infusion.
Where [5] appears, read: response = 50% improvement in IES-R score at 24 hours post-infusion.

pKi: −log10 of the molar value.

In the case of `CN[C@]1(c2ccccc2Cl)CCCCC1=O` [S(+)-ketamine], the pKi (as a rule, the negative decadic logarithm of the Ki, by convention in mol/L) on NMDA receptors is 5.49. Further, the “potency compared with racemic mixture of ketamine” value in test [1] is given as “two times more potent”.

With `CN[C@@]1(c2ccccc2Cl)CCCCC1=O` [R(−)], on NMDA receptors, the pKi is 5.96.

For the compound `Cc1ncc2n1-c1ccc(Cl)cc1C(c1ccccc1F)=NC2` [midazolam], in test [2] (at 2 weeks, CAPS score <50, drug given first), the “number of patients whose symptoms remained significantly improved” value is on record as “one”. Besides, in test [2] (at 7 days, single infusion study), the “decrease in CAPS score” value is 13 (sd=18). Moreover, in test [2] (setting [3]), the “CAPS Total (Week 1), mean” value is 65.69; the “CAPS Total (Week 2), mean” value stood at 70.81; the “CGI-I (Week 1), mean” value was 3.80; the “CGI-I (Week 2), mean” value turned out to be 3.91. Also, in test [2] (setting [3]), the “IES-R Total (Week 1), mean” value was 36.32 and the “IES-R Total (Week 2), mean” value worked out at 32.51. Besides, in test [2] (setting [4]), the “CAPS Total (Week 1)” value was 50, the “CAPS Total (Week 2)” value stood at 30, the “CGI-I (Week 1)” value is recorded as 4 and the “CGI-I (Week 2)” value is given as 4. Moreover, in test [2] (setting [4]), the “IES-R Total (Day 10)” value turned out to be 6, the “IES-R Total (Week 1)” value was determined as 12.57 and the “IES-R Total (Week 2)” value was determined as 5. Moreover, in test [2] (of all 35 patients), the “IES-R_response No, Percent of total” value is 31.43% and the “IES-R_response Yes, Percent of total” value turned out to be 14.29%. For the same compound, in test [2] (setting [5]), the “IES-R_response No, Frequency” value is reported as 11 and the “IES-R_response Yes, Frequency” value stood at 5. Further, the “IES-R_response No, Row Pct” value in test [2] (share of non-responders) is 55.00 Pct. For the same compound, the “IES-R_response Yes, Row Pct” value in test [2] (share of responders) came to 33.33 Pct. In test [2] (share of the treatment group), the “IES-R_response No, Col Pct” value came out at 68.75 Pct. For the same compound, the “IES-R_response Yes, Col Pct (responded after infusion)” value in test [2] (share of the treatment group, 24 hours post-infusion) is on record as 31.25%.
